The text below walks through data of patent US11440909B2, “10H-phenothiazine ferroptosis inhibitor as well as the preparative method and the use thereof” (CHENGDU HENGHAO INVESTMENT CO. LIMITED, priority 2018, dated 2022).

Molecules are shown by their SMILES.

For the first test, the system named is fibrosarcoma cell line HT1080. Description: Ferroptosis screening model (MTT method), Erastin-induced ferroptosis. The test is classed as cell-based, human. Particulars: HT1080, ferroptosis inducer Erastin, 72 h, average of three tests, read-out: EC50. As for the experimental part:
The screening model for ferroptosis mainly used MTT method. First, the fibrosarcoma cell line HT1080 was cultured in a dish, and the cells in the logarithmic growth phase were inoculated into a 96-well plate in a certain number (3000-10000 cells/well), 100 μL per well, and then the plate was put in an 5% CO2 incubator at 37° C., to allow the cells to adhere. After 24 h, 100 μL compound solution at a certain concentration prepared in the designated medium and ferroptosis inducer Erastin (with a final concentration of […]) were added, setting 3 replicate wells for each compound to ensure the accuracy of the results, and a negative control group, a positive control group (Fer-15 μM), a blank control group and a solvent control group were included. After addition of drugs, the plate was placed in an incubator and cultivated for 72 h. On the day of MTT experiment, MTT test solution (5 mg/mL MTT solution dissolved in physiological saline, and stored in the dark at 4° C.) was pre-prepared and 20 μL MTT solution was added to each well, then the plate was put in an incubator and continued to incubate for 2-4 h. After that, 50 μL of 20% SDS solution (dissolved in MiliiQ water, added with 1% concentrated hydrochloric acid) was added to each well and kept in an incubator overnight. On the next day, the absorbance at 570 nm was measured with a microplate reader, to calculate the inhibition rate of drugs on ferroptosis. Generally, the absorbance value of the control group should be in the range of 0.8-1.2 as a normal value.
GraphPadPrism5 software was used to fit the change curve of inhibition rate and calculate the EC50.
A general note: Tetrazolium assays rely on reduction of a dye to a coloured formazan, in cell work by metabolically active cells.
For orientation: EC50 means the concentration at which the effect is half-maximal. Consider `CC(c1ccc2c(c1)Nc1ccccc1S2)c1c2ccccc2cc2ccccc12` (centres unmarked) [Compound A71, 2-(1-(anthrathen-9-yl)ethyl)-10H-phenothiazine], for which the EC50 amounted to 17 nM.

As for `CC(c1ccccc1)c1ccc2c(c1)Nc1ccccc1S2` (centres unmarked) [Compound B1, 2-(1-phenylethyl)-10H-phenothiazine], the EC50 was determined as 10 nM.

Take `C=C(c1ccc(N2CCOCC2)cc1)c1ccc2c(c1)Nc1ccccc1S2` [Compound B14, 4-(4-(1-(10H-phenothiazin-2-yl)ethenyl)phenyl)morpholine]: the EC50 came to 39 nM.

The test is the same for the next values; noted with them: Homo sapiens, HT-1080, 72 h, HT1080, ferroptosis inducer Erastin, 72 h, average of three tests, read-out: EC50.
As to `COc1ccc(C(C)c2ccc3c(c2)Nc2ccccc2S3)cc1OC` (centres unmarked) [Compound A47, 2-(1-(3,4-dimethoxylphenyl)ethyl)-10H-phenothiazine], the EC50 is 7 nM.

As for `COc1cc(C(C)c2ccc3c(c2)Nc2ccccc2S3)ccc1C` (centres unmarked) [Compound A48, 2-(1-(3-methoxyl-4-methylphenyl)ethyl)-10H-phenothiazine], the EC50 amounted to 22 nM.

For `COc1ccc(C(C)c2ccc3c(c2)Nc2ccccc2S3)cc1C` (centres unmarked) [Compound A49, 2-(1-(4-methoxyl-3-methylphenyl)ethyl)-10H-phenothiazine], the EC50 was found to be 19 nM.

As to `COc1cc(C(C)c2ccc3c(c2)Nc2ccccc2S3)ccc1Cl` (centres unmarked) [Compound A50, 2-(1-(4-chloro-3-methoxylphenyl)ethyl)-10H-phenothiazine], the EC50 worked out at 25 nM.

Take `COc1cc(C(C)c2ccc3c(c2)Nc2ccccc2S3)ccc1F` (centres unmarked) [Compound A51, 2-(1-(4-fluoro-3-methoxylphenyl)ethyl)-10H-phenothiazine]: the EC50 stood at 22 nM.

Regarding `Cc1ccc(C(C)c2ccc3c(c2)Nc2ccccc2S3)cc1[N+](=O)[O-]` (centres unmarked) [Compound A52, 2-(1-(4-methyl-3-nitrophenyl)ethyl)-10H-phenothiazine], the EC50 stood at 13 nM.

As for `COC(=O)c1ccc(C(C)c2ccc3c(c2)Nc2ccccc2S3)cc1Cl` (centres unmarked) [Compound A53, 4-(1-(10H-phenothiazin-2-yl)ethyl)-2-chlorobenzoic acid methyl ester], the EC50 worked out at 20 nM.

On to `Cc1cc(C(C)c2ccc3c(c2)Nc2ccccc2S3)ccc1OCc1ccccc1` (centres unmarked) [Compound A54, 2-(1-(4-(benzyloxyl)-3-methylphenyl)ethyl)-10H-phenothiazine], for which the EC50 worked out at 68 nM.

Consider `CC(c1ccc2c(c1)Nc1ccccc1S2)c1ccc(F)c(OCc2ccccc2)c1` (centres unmarked) [Compound A55, 2-(1-(3-(benzyloxyl)-4-fluorophenyl)ethyl)-10H-phenothiazine], for which the EC50 amounted to 59 nM.

Regarding `CC(c1cc(F)cc(F)c1)c1ccc2c(c1)Nc1ccccc1S2` (centres unmarked) [Compound A56, 2-(1-(3,5-difluorophenyl)ethyl)-10H-phenothiazine], the EC50 worked out at 19 nM.

As for `CC(c1cc(Cl)cc(Cl)c1)c1ccc2c(c1)Nc1ccccc1S2` (centres unmarked) [Compound A57, 2-(1-(3,5-dichlorophenyl)ethyl)-10H-phenothiazine], the EC50 stood at 18 nM.

For `CC(c1cc(C(F)(F)F)cc(C(F)(F)F)c1)c1ccc2c(c1)Nc1ccccc1S2` (centres unmarked) [Compound A58, 2-(1-(3,5-bis(trifluoromethyl)phenyl)ethyl)-10H-phenothiazine], the EC50 was determined as 19 nM.

On to `Cc1cc(C)cc(C(C)c2ccc3c(c2)Nc2ccccc2S3)c1` (centres unmarked) [Compound A59, 2-(1-(3,5-dimethylphenyl)ethyl)-10H-phenothiazine], for which the EC50 came out at 20 nM.

Turning to `COc1cc(OC)cc(C(C)c2ccc3c(c2)Nc2ccccc2S3)c1` (centres unmarked) [Compound A60, 2-(1-(3,5-dimethoxylphenyl)ethyl)-10H-phenothiazine], the EC50 came to 12 nM.

As for `CCOc1cc(F)cc(C(C)c2ccc3c(c2)Nc2ccccc2S3)c1` (centres unmarked) [Compound A61, 2-(1-(3-ethoxyl-5-fluorophenyl)ethyl)-10H-phenothiazine], the EC50 stood at 34 nM.

Take `Cc1cc(Cl)cc(C(C)c2ccc3c(c2)Nc2ccccc2S3)c1` (centres unmarked) [Compound A62, 2-(1-(3-chloro-5-methylphenyl)ethyl)-10H-phenothiazine]: the EC50 came out at 24 nM.

Regarding `COC(=O)c1cc(F)cc(C(C)c2ccc3c(c2)Nc2ccccc2S3)c1` (centres unmarked) [Compound A63, 3-(1-(10H-phenothiazin-2-yl)ethyl)-5-fluorobenzoic acid methyl ester], the 50% effective concentration (EC50) was 31 nM.

Consider `CC(c1cc(F)cc(OCc2ccccc2)c1)c1ccc2c(c1)Nc1ccccc1S2` (centres unmarked) [Compound A64, 2-(1-(3-(benzyloxyl)-5-fluorophenyl)ethyl)-10H-phenothiazine], for which the EC50 came to 64 nM.

For `CC(c1ccc2c(c1)Nc1ccccc1S2)c1ccc2c(c1)OCCO2` (centres unmarked) [Compound A65, 2-(1-(2,3-dihydrobenzo[b][1,4]dioxa-6-yl)ethyl)-10H-phenothiazine], the EC50 amounted to 8 nM.

For the compound `CC(c1ccc2c(c1)Nc1ccccc1S2)c1cccc2c1COCO2` (centres unmarked) [Compound A66, 2-(1-(benzo[d][1,3]dioxin-5-yl)ethyl)-10H-phenothiazine], the EC50 came out at 5 nM.

For the compound `CC(c1ccc2c(c1)Nc1ccccc1S2)c1cc2ccccc2o1` (centres unmarked) [Compound A67, 2-(1-(benzofuran-2-yl)ethyl)-10H-phenothiazine], the EC50 came to 16 nM.

Take `CC(c1ccc2c(c1)Nc1ccccc1S2)c1ccc2ccccc2c1` (centres unmarked) [Compound A68, 2-(1-(naphthalen-2-yl)ethyl)-10H-phenothiazine]: the EC50 turned out to be 5 nM.

As to `COc1ccc2cc(C(C)c3ccc4c(c3)Nc3ccccc3S4)ccc2c1` (centres unmarked) [Compound A69, 2-(1-(6-methoxylnaphthalen-2-yl)ethyl)-10H-phenothiazine], the EC50 was determined as 3 nM.

Regarding `CCOc1ccc2cc(C(C)c3ccc4c(c3)Nc3ccccc3S4)ccc2c1` (centres unmarked) [Compound A70, 2-(1-(6-ethoxylnaphthalen-2-yl)ethyl)-10H-phenothiazine], the EC50 came out at 18 nM.

`CC(c1ccc2c(c1)CCO2)c1ccc2c(c1)Nc1ccccc1S2` (centres unmarked) [Compound A72, 2-(1-(2,3-dihydrobenzofuran-5-yl)ethyl)-10H-phenothiazine]: the EC50 was 14 nM.

`CC(c1cncc(C#N)c1)c1ccc2c(c1)Nc1ccccc1S2` (centres unmarked) [Compound A73, 5-(1-(10H-phenothiazin-2-yl)ethyl)nicotinonitrile]: the EC50 stood at 5 nM.

As for `Cc1cc(C(C)c2ccc3c(c2)Nc2ccccc2S3)ccn1` (centres unmarked) [Compound A74, 2-(1-(2-methylpyridin-4-yl)ethyl)-10H-phenothiazine], the EC50 amounted to 3 nM.

With `CCOc1ccc(C(C)c2ccc3c(c2)Nc2ccccc2S3)cn1` (centres unmarked) [Compound A75, 2-(1-(6-ethoxylpyridin-3-yl)ethyl)-10H-phenothiazine], the EC50 worked out at 23 nM.

Turning to `CC(c1ccc2c(c1)Nc1ccccc1S2)C1CCCCC1` (centres unmarked) [Compound A76, 2-(1-cyclohexylethyl)-10H-phenothiazine], the EC50 was found to be 5 nM.

As for `C=C(c1ccc(C(=O)OC)cc1)c1ccc2c(c1)Nc1ccccc1S2` [Compound B2, methyl 4-(1-(10H-phenothiazin-2-yl)ethenyl)benzoic acid], the EC50 turned out to be 32 nM.

Take `C=C(c1ccc(C(F)(F)F)cc1)c1ccc2c(c1)Nc1ccccc1S2` [Compound B3, 2-(1-(4-(trifluoromethyl)phenyl)ethenyl)-10H-phenothiazine]: the EC50 worked out at 11 nM.

On to `C=C(c1ccc(CC)cc1)c1ccc2c(c1)Nc1ccccc1S2` [Compound B4, 2-(1-(4-ethylphenyl)ethenyl)-10H-phenothiazine], for which the EC50 worked out at 23 nM.

As for `C=C(c1ccc(OC(F)(F)F)cc1)c1ccc2c(c1)Nc1ccccc1S2` [Compound B5, 2-(1-(4-trifluoromethoxylphenyl)ethenyl)-10H-phenothiazine], the EC50 stood at 80 nM.

As for `C=C(c1ccc(C)cc1)c1ccc2c(c1)Nc1ccccc1S2` [Compound B6, 2-(1-(p-methylphenyl)ethenyl)-10H-phenothiazine], the EC50 came out at 45 nM.

As to `C=C(c1ccc(CCCC)cc1)c1ccc2c(c1)Nc1ccccc1S2` [Compound B7, 2-(1-(4-butylphenyl)ethenyl)-10H-phenothiazine], the EC50 amounted to 29 nM.

Regarding `C=C(c1ccc(C(C)C)cc1)c1ccc2c(c1)Nc1ccccc1S2` [Compound B8, 2-(1-(4-isopropylphenyl)ethenyl)-10H-phenothiazine], the 50% effective concentration (EC50) was 40 nM.

`C=C(c1ccc(NC(C)=O)cc1)c1ccc2c(c1)Nc1ccccc1S2` [Compound B9, N-(4-(1-(10H-phenothiazin-2-yl)ethenyl)phenyl)acetylamine]: the EC50 is 3 nM.

In the case of `C=C(c1ccc(NC(N)=O)cc1)c1ccc2c(c1)Nc1ccccc1S2` [Compound B10, N-(4-(1-(10H-phenothiazin-2-yl)ethenyl)phenyl)urea], the EC50 amounted to 10 nM.

Take `C=C(c1ccc(C2CCCCC2)cc1)c1ccc2c(c1)Nc1ccccc1S2` [Compound B11, 2-(1-(4-cyclohexylphenyl)ethenyl)-10H-phenothiazine]: the EC50 came to 39 nM.

On to `C=C(c1ccc(CC(C)C)cc1)c1ccc2c(c1)Nc1ccccc1S2` [Compound B12, 2-(1-(4-isobutylphenyl)ethenyl)-10H-phenothiazine], for which the EC50 was determined as 40 nM.

For the compound `C=C(c1ccc(C=O)cc1)c1ccc2c(c1)Nc1ccccc1S2` [Compound B13, 4-(1-(10H-phenothiazin-2-yl)ethenyl)benzaldehyde], the EC50 is 30 nM.
